Laboratory results published in patent US11046730B2, “Antimicrobial compositions” (The Regents of the University of California, priority 2016, dated 2021).
Bridge positions count the residues as written; N and C are the ends. Square brackets hold non-standard residues; d marks the D form. Peptide text beside a SMILES is read from it.

Legend:
Gram-positive bacteria [1] = assay: minimum inhibitory concentration (MIC) assays against four types of Gram-positive bacteria; assay type: cell-based; conditions: for MIC: four Gram-positive bacteria studied, homologues as TFA salts; for antibiotic activity in MIC assays, result in words: Gram-positive bacteria, mostly compared with Arg10-teixobactin; for MIC values lower than those of Arg10-teixobactin (fold): relative to Arg10-teixobactin; for MIC values: four species of Gram-positive bacteria
From the text: The antibiotic activity of Arg10-teixobactin and homologues was investigated in minimum inhibitory concentration (MIC) assays against four types of Gram-positive bacteria, as well as control substances, in order to elucidate the importance of various functionalities within teixobactin analogues and guide the rational design of new antimicrobial compounds (as summarized in Tables 1, 2 and 3 (FIGS. 5A, 5B, and 5C respectively). These MIC studies used vancomycin as a positive control and the Gram-negative bacterium E. coli as a negative control.

[2] = gel formation / solubility; assay type: physicochemical; conditions: propensity to form a gel
Procedure: In addition, according to many embodiments of the invention, teixobactin homologues can be functionalized at position 9 to improve solubility for easier or more efficient drug administration. For example, Arg10-teixobactin has the propensity to form a gel at concentrations as low as 5 mg/mL. This poor solubility will hamper the ability of Arg10-teixobactin or any other teixobactin derivative to be used as a drug because it will impede intravenous administration. […] More specifically, in some embodiments of the invention the water solubility of teixobactin analogues can be improved by functionalization of position 9 with polyethylene glycol (PEG) derivatives. In one embodiment, Ala9 is replaced with a PEG-containing amino acid, such as Gln(PEG6OMe), the derivative of Glu, in which the side chain has been coupled to H2NCH2CH2(OCH2CH2)5OMe.

Gram-positive bacteria [3] = conditions: literature structure-activity studies; cited from earlier work

Compound	antibiotic activity in MIC assays, result in words (Gram-positive bacteria [1])	further results
CC[C@H](C)[C@H](NC(=O)[C@@H](Cc1ccccc1)NC)C(=O)N[C@@H](CO)C(=O)N[C@H](CCC(N)=O)C(=O)N[C@@H](C(=O)N[C@H](C(=O)N[C@@H](CO)C(=O)N[C@H]1C(=O)N[C@@H](C)C(=O)N[C@@H](CCCNC(=N)N)C(=O)N[C@@H]([C@@H](C)CC)C(=O)O[C@H]1C)[C@@H](C)CC)[C@@H](C)CC [Arg10-teixobactin]		MIC (Gram-positive bacteria [1]): 1 to 4 µg/mL; concentration at which a gel forms [2]: ≥ 5000 µg/mL; activity relative to teixobactin in MIC assays (Gram-positive bacteria [3]): about an order of magnitude less active
CC[C@H](C)[C@H](N)C(=O)N[C@@H](CO)C(=O)N[C@H]1C(=O)N[C@@H](C)C(=O)N[C@@H](CCCNC(=N)N)C(=O)N[C@@H]([C@@H](C)CC)C(=O)O[C@H]1C [short-Arg10-teixobactin] (H-IS[dT]ARI; ester 3-C)		MIC (Gram-positive bacteria [1]): > 32 µg/mL
Ac-Δ1-5-Arg10-teixobactin	inactive	
Ala3,Lys10-teixobactin	diminished the activity of position 10 lysine analogue	
Ala7,Arg10-teixobactin	greatly diminished activity	
Arg10Lys11-teixobactin	loss of activity	
Chg6,Arg10,Chg11-teixobactin	slightly greater activity than Arg10-teixobactin	MIC values lower than those of Arg10-teixobactin (fold) (Gram-positive bacteria [1]): lower by a factor of two
D-Dap8,Arg10-teixobactin	comparable activity to Arg10-teixobactin	
D-allo-Ile11,Arg10-teixobactin	half as active	
Glu(PEG-Biotinyl)9,Lys10-teixobactin		MIC values (Gram-positive bacteria [1]): 2-16 micrograms/mL
Lys6Arg10-teixobactin	loss of activity	
Lys9Arg10-teixobactin		antibiotic activity in MIC assays, result in words (Gram-positive bacteria [1]; listed as Lys9,Arg10-teixobactin): proven activity
Lys10-teixobactin	comparable to those of vancomycin	MIC values lower than those of Arg10-teixobactin (fold) (Gram-positive bacteria [1]): 2-4 times
Lys(Mca)9,Lys10-teixobactin		MIC values (Gram-positive bacteria [1]): 1-8 micrograms/mL
Orn10-teixobactin	excellent to satisfactory antimicrobial activity	
dodecanoyl-Δ1-5-Arg10-teixobactin [lipobactin 1]	activity close to that of Arg10-teixobactin	
ent-Arg10-teixobactin	comparable activity to Arg10-teixobactin	
